Like-named read-outs stand apart in the source and are kept apart here.
Assays:
CDK6/Cyclin D3 = CDK6/Cyclin D3 (Homo sapiens (Human), UniProt Q00534); assay: CDK6/Cyclin D3 CHEF assay (Chelation-Enhanced Fluorescence), Ki by Morrison equation; type: biochemical; details: geometric mean, read-out: CDK6/Cyclin D3: GMean Ki
Source text: (§1) In Vitro Purified Enzyme Assays to Determine Potency for CDKs
(§2) CDK4/Cyclin D1 and CDK6/Cylcin D3 CHEF Assay
(§3) The Chelation-Enhanced Fluorescence (CHEF) monitors the phosphorylation state in real time where the level of fluorescence is directly proportional to the amount of phosphorylated substrate. CHEF exploits a synthetic α-amino acid with a side chain bearing an 8-hydroxyquinoline derivative (sulfonamido-oxine, Sox) which, upon coordination to Mg(II), relays information on the phosphorylation state of a proximal serine, threonine or tyrosine residue in peptide-based kinase substrates. Phosphorylation of a specific peptide (Catalog # AQT0258) from AssayQuant Technologies results in an increase in fluorescence at the excitation and emission wavelengths of 360 nm Ex/485 nm Em.
(§4) Examples along with DMSO (negative) and Palbociclib (positive) controls were added to 384-well plates at 100-fold their final concentrations followed by the addition of 10 nM CDK4/Cyclin D1 (LJIC-2007F1) or 10 nM CDK6/Cyclin D3 (LJIC-2009H2) for a 20 minute pre-incubation in assay buffer containing 40 mM HEPES, 1 mM Dithiothreito (DTT, 10 mM MgCl2, 1% Glycerol, 0.1% BSA. Enzyme reactions were initiated by the addition of AssayQuant Technologies peptide and ATP substrates (10 μM CHEF peptide (Catalog # AQT0258), 2 mM ATP) and allowed to proceed for 2 hours followed by fluorescence read of the reaction. Ki determinations were made from a plot of the fractional velocity as a function of inhibitor concentration fit to the Morrison equation with the enzyme concentration as a variable.
(§5) For all the CDK4 and CDK6 assays the Ki constant for compounds were calculated for each enzyme using the Morrison equation. Fractional activity was measured at different compound concentrations, [I] and the data fit to the Morrison equation where [E] is the enzyme concentration, [S] is the ATP concentration, and Kn^App is the apparent Km for ATP for each enzyme under each assay format. With the Ki calculations dependent on the assay conditions for each assay format the resulting Ki becomes assay independent with a strong one to one correlation of Ki values for compounds tested in both assay formats.
(§6) In Table 2, assay data are presented to two (2) significant figures as the geometric mean (Ki) based on the number of replicates listed (Number). A cell having NA means there was no data for that Example in the indicated assay.

CDK4/Cyclin D1 = CDK4/Cyclin D1 (Homo sapiens (Human), UniProt P11802); assay: CDK4/Cyclin D1 CHEF assay (Chelation-Enhanced Fluorescence), Ki by Morrison equation; type: biochemical; details: geometric mean, read-out: CDK4/Cyclin D1 GMean Ki
Source text: as §1, §2, §3, §4, §5, §6

CDK6/Cyclin D3, sequence (Q00534 whole entry): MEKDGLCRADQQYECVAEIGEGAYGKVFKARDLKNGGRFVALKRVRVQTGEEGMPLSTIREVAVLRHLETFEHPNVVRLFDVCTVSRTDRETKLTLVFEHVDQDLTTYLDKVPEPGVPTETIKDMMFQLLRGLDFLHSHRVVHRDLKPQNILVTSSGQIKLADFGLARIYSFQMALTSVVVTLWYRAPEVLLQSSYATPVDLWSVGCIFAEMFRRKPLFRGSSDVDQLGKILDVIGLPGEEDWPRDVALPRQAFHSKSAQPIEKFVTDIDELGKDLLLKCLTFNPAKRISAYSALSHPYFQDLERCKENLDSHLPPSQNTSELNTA
CDK6/Cyclin D3, sequence (P30281 whole entry partner): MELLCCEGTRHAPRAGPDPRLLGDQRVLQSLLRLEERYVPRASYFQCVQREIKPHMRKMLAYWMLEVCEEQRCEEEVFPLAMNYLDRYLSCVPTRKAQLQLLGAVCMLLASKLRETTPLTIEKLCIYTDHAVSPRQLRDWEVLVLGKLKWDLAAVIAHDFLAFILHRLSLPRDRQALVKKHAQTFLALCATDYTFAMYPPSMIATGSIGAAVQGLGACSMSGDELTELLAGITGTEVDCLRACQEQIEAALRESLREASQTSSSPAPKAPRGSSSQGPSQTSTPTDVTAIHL
CDK4/Cyclin D1, sequence (P11802 whole entry): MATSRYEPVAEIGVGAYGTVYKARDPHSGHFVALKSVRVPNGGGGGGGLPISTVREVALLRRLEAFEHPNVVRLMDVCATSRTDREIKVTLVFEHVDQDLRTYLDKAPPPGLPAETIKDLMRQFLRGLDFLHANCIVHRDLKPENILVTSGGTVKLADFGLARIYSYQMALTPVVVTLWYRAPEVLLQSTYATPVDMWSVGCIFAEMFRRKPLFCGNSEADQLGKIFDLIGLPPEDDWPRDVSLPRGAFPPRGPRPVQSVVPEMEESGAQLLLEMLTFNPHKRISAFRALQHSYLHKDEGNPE
CDK4/Cyclin D1, sequence (P24385 whole entry partner): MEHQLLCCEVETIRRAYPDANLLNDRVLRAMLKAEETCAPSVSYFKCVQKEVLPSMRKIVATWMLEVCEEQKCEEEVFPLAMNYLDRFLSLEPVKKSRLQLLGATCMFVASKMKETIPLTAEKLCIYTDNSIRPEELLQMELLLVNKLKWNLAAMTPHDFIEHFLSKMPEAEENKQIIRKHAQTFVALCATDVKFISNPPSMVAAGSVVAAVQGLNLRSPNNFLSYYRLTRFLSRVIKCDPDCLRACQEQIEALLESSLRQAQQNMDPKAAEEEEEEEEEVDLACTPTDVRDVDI

Ki (CDK6/Cyclin D3; tested in both CHEF and MSA) [nM]	Ki (CDK4/Cyclin D1; tested in both CHEF and MSA) [nM]	Ki (CDK6/Cyclin D3; tested in CHEF Assay) [nM]	Ki (CDK4/Cyclin D1; tested in CHEF Assay) [nM]	Compound
1.3	0.4			CC(=O)c1c(C)c2cnc(N[C@@H]3CCOC[C@H]3O)cc2n(C2CCCC2)c1=O [Example 5, 3-Acetyl-1-cyclopentyl-7-{[(3S,4R)-3-hydroxytetrahydro-2H-pyran-4-yl]amino}-4-methyl-1,6-naphthyridin-2(1H)-one]
		7.7	7.2	CC(=O)c1c(C)c2cnc(N[C@@H]3CCOC[C@H]3O)nc2n([C@H]2CCC[C@]2(C)O)c1=O (mixture of isomers) [Example 7, 6-Acetyl-8-[(1S,2S)-2-hydroxy-2-methylcyclopentyl]-2-{[(3S,4R)-3-hydroxytetrahydro-2H-pyran-4-yl]amino}-5-methylpyrido[2,3-d]pyrimidin-7(8H)-one and 6-Acetyl-8-[(1R,2R)-2-hydroxy-2-methylcyclopentyl]-2-{[(3S,4R)-3-hydroxytetrahydro-2H-pyran-4-yl]amino}-5-methylpyrido[2,3-d]pyrimidin-7(8H)-one]
		13	13	CC(=O)c1c(C)c2cnc(N[C@@H]3CCOC[C@H]3O)nc2n([C@H]2C[C@H](O)C2)c1=O [Example 21, 6-acetyl-8-(trans-3-hydroxycyclobutyl)-2-{[(3S,4R)-3-hydroxytetrahydro-2H-pyran-4-yl]amino}-5-methylpyrido[2,3-d]pyrimidin-7(8H)-one]
		> 560	> 1100	CC(=O)c1c(C)c2cnc(N[C@@H]3CCOC[C@H]3O)nc2n([C@H]2CCC[C@]2(C)F)c1=O (single isomer, unassigned) [Example 23]
1.2	0.8			CC(=O)c1c(C)c2cnc(N[C@@H]3CCOC[C@H]3O)nc2n(C2CCCC2)c1=O [Example 2, 6-acetyl-8-cyclopentyl-2-{[(3S,4R)-3-hydroxytetrahydro-2H-pyran-4-yl]amino}-5-methylpyrido[2,3-d]pyrimidin-7(8H)-one]
		110	36	CC(=O)c1c(C)c2cnc(N[C@@H]3CCOC[C@H]3O)nc2n([C@H]2CC[C@H](N(C)C)CC2)c1=O [Example 25]
		2.6	0.9	CC(=O)c1c(C)c2cnc(N[C@@H]3CCOC[C@H]3O)cc2n(C2CCC(O)C2)c1=O (single isomer, unassigned) [Example 14]
		24	13	CC(=O)c1c(C)c2cnc(N[C@@H]3CCOC[C@H]3O)nc2n([C@H]2CC[C@H](N)CC2)c1=O [Example 24]
		2.1	1.6	CC(=O)c1c(C)c2cnc(N[C@@H]3CCOC[C@H]3O)nc2n([C@@H]2CCC[C@@H]2C)c1=O [Example 4, 6-Acetyl-2-{[(3S,4R)-3-hydroxytetrahydro-2H-pyran-4-yl]amino}-5-methyl-8-[(1R,2S)-2-methylcyclopentyl]pyrido[2,3-d]pyrimidin-7(8H)-one]
		85	52	CC(=O)c1c(C)c2cnc(N[C@@H]3CCOC[C@H]3O)nc2n(C2CC2)c1=O [Example 34]
		25	9.9	CC(=O)c1c(C)c2cnc(N[C@@H]3CCOC[C@H]3O)nc2n([C@@H]2CCNC2)c1=O [Example 27]
		58	54	CC(=O)c1c(C)c2cnc(N[C@@H]3CCOC[C@H]3O)nc2n([C@H]2CC[C@@H](O)CC2)c1=O [Example 20, 6-acetyl-8-(cis-4-hydroxycyclohexyl)-2-{[(3S,4R)-3-hydroxytetrahydro-2H-pyran-4-yl]amino}-5-methylpyrido[2,3-d]pyrimidin-7(8H)-one]
		130	62	CC(=O)c1c(C)c2cnc(N[C@H]3CCOC[C@@H]3O)cc2n(C2CCCC2)c1=O [Example 33, 3-acetyl-1-cyclopentyl-7-{[(3R,4S)-3-hydroxytetrahydro-2H-pyran-4-yl]amino}-4-methyl-1,6-naphthyridin-2(1H)-one]
		5	2.7	CC[C@H]1CCC[C@H]1n1c(=O)c(C(C)=O)c(C)c2cnc(N[C@@H]3CCOC[C@H]3O)nc21 [Example 10, 6-Acetyl-8-[(1R,2S)-2-ethylcyclopentyl]-2-{[(3S,4R)-3-hydroxytetrahydro-2H-pyran-4-yl]amino}-5-methylpyrido[2,3-d]pyrimidin-7(8H)-one]
		16	34	CC(=O)c1c(C)c2cnc(N[C@@H]3CCOC[C@H]3O)cc2n([C@H]2CCOC2)c1=O [Example 11, 3-Acetyl-7-{[(3S,4R)-3-hydroxytetrahydro-2H-pyran-4-yl]amino}-4-methyl-1-[(3S)-tetrahydrofuran-3-yl]-1,6-naphthyridin-2(1H)-one]
		2	1.8	CC(=O)c1c(C)c2cnc(N[C@@H]3CCOC[C@H]3O)nc2n(C2CCC2)c1=O [Example 1, 6-Acetyl-8-cyclobutyl-2-{[(3S,4R)-3-hydroxytetrahydro-2H-pyran-4-yl]amino}-5-methylpyrido[2,3-d]pyrimidin-7(8H)-one]
		36	10	COCCN1CC2(CC(n3c(=O)c(C(C)=O)c(C)c4cnc(N[C@@H]5CCOC[C@H]5O)nc43)C2)C1 [Example 28]
		190	113	CC(=O)c1c(C)c2cnc(N[C@@H]3CCOC[C@H]3O)nc2n([C@H]2CCC[C@]2(C)O)c1=O (mixture of isomers) [Example 6, 6-Acetyl-8-[(1S,2S)-2-hydroxy-2-methylcyclopentyl]-2-{[(3S,4R)-3-hydroxytetrahydro-2H-pyran-4-yl]amino}-5-methylpyrido[2,3-d]pyrimidin-7(8H)-one and 6-Acetyl-8-[(1R,2R)-2-hydroxy-2-methylcyclopentyl]-2-{[(3S,4R)-3-hydroxytetrahydro-2H-pyran-4-yl]amino}-5-methylpyrido[2,3-d]pyrimidin-7(8H)-one]
		39	13	CC(=O)c1c(C)c2cnc(N[C@@H]3CCOC[C@H]3O)nc2n([C@H]2CCN(C)C2)c1=O [Example 26]
		29	27	CC(=O)c1c(C)c2cnc(N[C@@H]3CCOC[C@H]3O)nc2n([C@H]2CCOC2)c1=O [Example 31]
		> 570	430	CC(=O)c1c(C)c2cnc(N[C@H]3CCOC[C@@H]3O)nc2n(C2CCCC2)c1=O [Example 30, 6-acetyl-8-cyclopentyl-2-{[(3R,4S)-3-hydroxytetrahydro-2H-pyran-4-yl]amino}-5-methylpyrido[2,3-d]pyrimidin-7(8H)-one]
		4.2	4.5	CC(=O)c1c(C)c2cnc(N[C@@H]3CCOC[C@H]3O)nc2n(C2CC(C)(C)C2)c1=O [Example 19, 6-Acetyl-8-(3,3-dimethylcyclobutyl)-2-{[(3S,4R)-3-hydroxytetrahydro-2H-pyran-4-yl]amino}-5-methylpyrido[2,3-d]pyrimidin-7(8H)-one]

Compound	Ki (CDK6/Cyclin D3; tested in both CHEF and MSA) [nM]	Ki (CDK4/Cyclin D1; tested in both CHEF and MSA) [nM]	Ki (CDK6/Cyclin D3; tested in CHEF Assay) [nM]	Ki (CDK4/Cyclin D1; tested in CHEF Assay) [nM]
CC(=O)c1c(C)c2cnc(N[C@@H]3CCOC[C@H]3O)nc2n([C@@H]2CC[C@@H]3C[C@@H]32)c1=O (mixture of isomers) [Example 13, 6-Acetyl-8-[(1S,2R,5R)-bicyclo[3.1.0]hexan-2-yl]-2-{[(3S,4R)-3-hydroxytetrahydro-2H-pyran-4-yl]amino}-5-methylpyrido[2,3-d]pyrimidin-7(8H)-one and 6-Acetyl-8-[(1R,2S,5S)-bicyclo[3.1.0]hexan-2-yl]-2-{[(3S,4R)-3-hydroxytetrahydro-2H-pyran-4-yl]amino}-5-methylpyrido[2,3-d]pyrimidin-7(8H)-one]			3.3	2.1
CC(=O)c1c(C)c2cnc(N[C@@H]3CCOC[C@H]3O)nc2n([C@@H]2CC[C@@H]3C[C@@H]32)c1=O (mixture of isomers) [Example 12, 6-Acetyl-8-[(1S,2R,5R)-bicyclo[3.1.0]hexan-2-yl]-2-{[(3S,4R)-3-hydroxytetrahydro-2H-pyran-4-yl]amino}-5-methylpyrido[2,3-d]pyrimidin-7(8H)-one and 6-Acetyl-8-[(1R,2S,5S)-bicyclo[3.1.0]hexan-2-yl]-2-{[(3S,4R)-3-hydroxytetrahydro-2H-pyran-4-yl]amino}-5-methylpyrido[2,3-d]pyrimidin-7(8H)-one]			9.7	8.5
